Assay results: patent US7192581B2, “Lactobacillus reuteri useful as probiotics” (Probionic Corp., priority 2001, dated 2007)
Values after ≈ are worked out from the molar mass of the structure shown. Read-outs that look alike come from different tables or passages of the source.

Tested on: #Probio-16
Experiment: Antibiotic susceptibility of #Probio-16 (paper disc)
Format: cell-based, Lactobacillus reuteri
Method: Antibiotic susceptibility of #Probio-16 was assayed according to Microbiology procedures handbook vol. 1 (Henry D. Isenberg, ASM) and Korean Pat. Publication No. 91-4366. In this regard, 13 antibiotics, that is, cephalexcin, erythromycin, flumequinine, furazolidine, gentamycin, procaine, penicillin G, norflaxacine, spectinomycin, tetracycline, tiamuline, neomycin, chloramphenicol, and kanamycin, were dissolved in appropriate solvents. By concentrations, the prepared antibiotic solutions were inoculated in an amount of 30 μl onto a paper disc which was then allowed to stand for 1 hour at 4° C. Inhibitory circles emerging after 24 hours of anaerobic incubation were measured.
Assay of #Probio-16 for antibiotic susceptibility was conduced according to Microbiology Procedures Handbook vol. 1 (Henry D. Isenberg, ASM) and Korean Pat. Publication No. 91-4366, with regard to 13 antibiotics, including cephalexcin, erythromycin, flumequinine, furazolidine, gentamycin, procaine, penicillin G, norflaxacine, spectinomycin, tetracycline, tiamuline, neomycin, chloramphenicol, and kanamycin. By concentrations, antibiotic solutions were inoculated in an amount of 30 μl onto a paper disc which was then allowed to stand for 1 hour at 4° C. Inhibitory circles emerging after 24 hours of anaerobic incubation were measured.

[1] = against #Probio-16, 24 hours anaerobic incubation (Table 3)
[2] = against Lactobacillus reuteri Probio-16
[3] = Limosilactobacillus reuteri, against #Probio-16, 24 hours anaerobic incubation (Table 3), read-out: MIC
[4] = Limosilactobacillus reuteri, against Lactobacillus reuteri Probio-16, read-out: minimal inhibitory concentration (MIC)
[5] = against Lactobacillus reuteri Probio-16 (unit not given)

Molecule | MIC [1] [µg/mL] | minimal inhibitory concentration (MIC) [2] | MIC [3] [µg/mL] | MIC [4] [µg/mL] | minimal inhibitory concentration (MIC) [5]
CC1=C(C(=O)O)N2C(=O)[C@@H](NC(=O)[C@H](N)c3ccccc3)[C@H]2SC1 [Cephalexcin] | 90 (≈ 259 µM) | 90 µg/mL (≈ 259 µM) |  |  | 
O=C(N[C@H](CO)[C@H](O)c1ccc([N+](=O)[O-])cc1)C(Cl)Cl [Chloramphenicol] |  |  | 200 (≈ 619 µM) | 200 (≈ 619 µM) | 
CC[C@H]1OC(=O)[C@H](C)[C@@H](O[C@H]2C[C@@](C)(OC)[C@@H](O)[C@H](C)O2)[C@H](C)[C@@H](O[C@@H]2O[C@H](C)C[C@H](N(C)C)[C@H]2O)[C@](C)(O)C[C@@H](C)C(=O)[C@H](C)[C@@H](O)[C@]1(C)O [Erythromycin] |  |  | 4 (≈ 5.45 µM) | 4 (≈ 5.45 µM) | 
CC1CCc2cc(F)cc3c(=O)c(C(=O)O)cn1c23 (centres unmarked) [Flumequinine] | 4000 (≈ 15300 µM) | 4,000 μg/ml |  |  | 
O=C1OCCN1/N=C/c1ccc([N+](=O)[O-])o1 [Furazolidine] | 90 (≈ 400 µM) | 90 µg/mL (≈ 400 µM) |  |  | 
NC[C@H]1O[C@H](O[C@H]2[C@H](O)[C@@H](O[C@H]3O[C@H](CO)[C@@H](O)[C@H](N)[C@H]3O)[C@H](N)C[C@@H]2N)[C@H](O)[C@@H](O)[C@@H]1O [Kanamycine] |  |  | 4000 (≈ 8260 µM) | 4000 (≈ 8260 µM) | 
NC[C@@H]1O[C@H](O[C@H]2[C@@H](O)[C@H](O[C@@H]3[C@@H](O)[C@H](N)C[C@H](N)[C@H]3O[C@H]3O[C@H](CN)[C@@H](O)[C@H](O)[C@H]3N)O[C@@H]2CO)[C@H](N)[C@@H](O)[C@@H]1O [Neomycine] | 100 (≈ 163 µM) | 100 µg/mL (≈ 163 µM) |  |  | 
CCn1cc(C(=O)O)c(=O)c2cc(F)c(N3CCNCC3)cc21 [Norflaxacine] | 1000 (≈ 3130 µM) |  |  |  | 100
CN[C@@H]1[C@H](O)[C@H](NC)[C@H]2O[C@@]3(O)C(=O)C[C@@H](C)O[C@H]3O[C@@H]2[C@H]1O [Spectinomycine] |  |  | 2500 (≈ 7520 µM) | 2500 (≈ 7520 µM) | 
CN(C)[C@@H]1C(O)=C(C(N)=O)C(=O)[C@@]2(O)C(O)=C3C(=O)c4c(O)cccc4[C@@](C)(O)[C@H]3C[C@@H]12 [Tetracycline] |  |  | 1500 (≈ 3380 µM) | 1500 (≈ 3380 µM) | 
C=C[C@]1(C)C[C@@H](OC(=O)CSCCN(CC)CC)[C@]2(C)[C@H](C)CC[C@]3(CCC(=O)[C@H]32)[C@@H](C)[C@@H]1O [Tiamuline] |  |  | 300 (≈ 608 µM) | 300 (≈ 608 µM) | 
CC1(C)S[C@@H]2[C@H](NC(=O)Cc3ccccc3)C(=O)N2[C@H]1C(=O)O.CCN(CC)CCOC(=O)c1ccc(N)cc1 [procaine Penicilline G] | 4 |  |  |  | 4
Gentamycine | 100 | 100 µg/mL |  |  | 
